Data taken from US20250230226A1, “PLXDC1/PLXDC2 ACTIVATORS AND THEIR USE IN THE TREATMENT OF BLOOD VESSEL DISORDERS” (THE REGENTS OF THE UNIVERSITY OF CALIFORNIA, priority 2019, published 2025).

Columns and labels:
[1] = tested on: tumor blood vessels; experiment: Tumor animal model, bolus IV injection (FIG. 23-26); format: in vivo, mice; conditions: bolus IV injection at day 0
From the text: Treatment was done at day 0 by bolus IV injection. A. Raw data of tumor growth curves of the mice in the control group. B. Raw data of tumor growth curves of the mice in the treatment group. C. Comparison of the combined growth data of the control group and the treatment group.
Pictures of the whole animals in the experiment described in FIG. 11 show tumor morphological and color changes on day 1 and day 3. Treatment was done at day 0. Tumors in the treatment groups becomes darker in color on day 1 due to the destruction of tumor blood vessels and accumulation of blood in the tumors. Tumors in the treatment groups start to become yellower in color on day 3, consistent with the onset of tumor necrosis due to the lack of tumor blood vessels.
FIG. 25A-B show tumor morphological changes on live animals due to the treatment by PLXDC1-activating compound. Pictures of the whole animals in the experiment described in FIG. 11 show tumor morphological and color changes on day 7. Treatment was done at day 0. While the tumors in the control group have grown to large sizes, tumors in the treatment groups have highly shrunk in size and become yellow in color.
FIG. 26A-B show morphological changes of dissected tumors due to the treatment by PLXDC1-activating compound. Pictures of the dissected tumors in the experiment described in FIG. 11 show tumor morphological and color changes on day 7. […]

[2] = tested on: pathogenic blood vessels; experiment: Ischemia-induced retinopathy in vivo (FIG. 22); design: species or system mice; conditions: subcutaneous injection during return to room air; n=10 retinas
From the text: A. Upper graph: Schematic diagram of the experimental design for ischemia-induced retinopathy. The high oxygen environment caused blood vessel loss (vaso-obliteration). In room air, loss of vessels triggered abnormal angiogenesis that generated pathogenic blood vessels on the top of the retina (marked in yellow in D). Treatment was applied during the return to room air by subcutaneous injection. Lower graph: quantitation of healthy blood vessels, vaso-obliteration and pathogenic blood vessels between the control (n=10) and treated retinas (n=10). […] B. Representative images of flat-mounted control retinas (upper two images) and retinas from compound treated mice (lower two images). Red signal is blood vessel marker. C. The same retinas in B with vaso-obliteration areas marked in white color. These images illustrate that compound-treated retinas went through vaso-obliteration like the control retinas. D. The same retinas in B with pathogenic blood vessels marked in yellow color.
FIG. 22A includes a schematic diagram of the experimental design for ischemia-induced retinopathy. The high oxygen environment caused blood vessel loss (vaso-obliteration). In room air, loss of vessels triggered abnormal angiogenesis that generated pathogenic blood vessels on the top of the retina (marked in yellow in FIG. 22D). Treatment was applied during the return to room air by subcutaneous injection. […]

With `CCCCCCCCCCCCCCOc1ccc(S(=O)(=O)c2cnc3ccc([S+](C)[O-])cc3c2N2CCC(N3CCC(N4CCN(C)CC4)CC3)CC2)cc1` (stereo not drawn) [Compound 346] the “Tumor growth / shrinkage” value [1] was “shrank the tumors significantly”, the Healthy blood vessels [2] was “improving the amount of healthy blood vessels” and the Pathogenic blood vessels [2] was “highly suppressed pathogenic blood vessels”.
